Measured values from PMC7031696 (Cell chemical biology, 2019).
Like-named read-outs stand apart in the source and are kept apart here.

Experiments:
[1] = system: Plasmodium falciparum 3D7-A10 parasites; assay: Stage specificity assay (8-h exposure of synchronized stages, IC50^8h); type: cell-based; conditions: for IC50: Plasmodium falciparum
[2] = system: asynchronous 3D7-A10 parasite cultures; assay: Standard 72-h exposure asexual blood stage susceptibility assay (IC50^72h); type: cell-based, Plasmodium falciparum; conditions: Plasmodium falciparum, 3D7, 72 h, read-out: Overall (72hr assay) Mean IC50 (IC50^72h)
[3] = system: 3D7-MR4 trophozoite parasite-infected RBCs; assay: Metabolomic profiling (hydrophilic metabolite changes, UHPLC-MS); type: cell-based, Plasmodium falciparum

## FC(F)(F)c1ccc(Nc2cc3[nH]c(-c4cccc(C(F)(F)F)c4)nc3cn2)nc1 [MMV675939]
[1]; 3D7-A10
  Ratio lowest IC50 8hr/IC50 72hr: 2.0
[1]; 3D7, read-out: Early rings Mean IC50 (IC50^8h), 8-h exposure 0–8 hr, 3D7-A10, survival at 60 h
  IC50: 1170 nM
[1]; 3D7, read-out: Early trophozoites Mean IC50 (IC50^8h), 8-h exposure 16–24 hr, 3D7-A10, survival at 60 h
  IC50: 62.9 nM
[1]; 3D7, read-out: Late rings Mean IC50 (IC50^8h), 8-h exposure 8–16 hr, 3D7-A10, survival at 60 h
  IC50: 268 nM
[1]; 3D7, read-out: Late trophozoites Mean IC50 (IC50^8h), 8-h exposure 24–32 hr, 3D7-A10, survival at 60 h
  IC50: 146 nM
[1]; 3D7, read-out: Schizonts Mean IC50 (IC50^8h), 8-h exposure 32–40 hr, 3D7-A10, survival at 60 h
  IC50: 1650 nM
[1]; most susceptible stages
  IC50^8h relative to IC50^72h value: 2 fold
[1]; period when the parasite was most susceptible (lowest IC50^8h)
  Stage of peak activity (Figure 6): early and late trophozoites
[1]; stage(s) with the lowest IC50^8h
  Peak Activity (Table S1): Trophs
[2]
  IC50: 30.8 nM
[3]; 10 × IC50^72h, 2.5 hr, trophozoites
  changes within the set of metabolites detected (low fold change group): did not induce major changes
[3]; metabolite 3-phosphoglycerate, log2 fold change
  Log2(fold changes) 3-phosphoglycerate: -0.0740
[3]; metabolite 4-Pyridoxic acid, log2 fold change
  Log2(fold changes) 4-Pyridoxic acid: 0.0934
[3]; metabolite 4-aminobutyrate, log2 fold change
  Log2(fold changes) 4-aminobutyrate: -0.0838
[3]; metabolite 4-phosphopantetheine, log2 fold change
  Log2(fold changes) 4-phosphopantetheine: 0.0000
[3]; metabolite 4-phosphopantothenate, log2 fold change
  Log2(fold changes) 4-phosphopantothenate: -0.1644
[3]; metabolite 5-aminopentanoic acid, log2 fold change
  Log2(fold changes) 5-aminopentanoic acid: 0.0000
[3]; metabolite 5-methyl-THF, log2 fold change
  Log2(fold changes) 5-methyl-THF: 0.0000
[3]; metabolite 5-phosphoribosyl-1-pyrophosphate, log2 fold change
  Log2(fold changes) 5-phosphoribosyl-1-pyrophosphate: 0.0000
[3]; metabolite 6-phospho-D-gluconate, log2 fold change
  Log2(fold changes) 6-phospho-D-gluconate: -0.0601
[3]; metabolite HVDD
  Log2(fold change) HVDD: 0.0907
[3]; metabolite Hydroxyisocaproic acid
  Log2(fold change) Hydroxyisocaproic acid: 0.0000
[3]; metabolite IDP
  Log2(fold change) IDP: 0.0000
[3]; metabolite IMP
  Log2(fold change) IMP: -0.0368
[3]; metabolite Inositol
  Log2(fold change) Inositol: 0.0000
[3]; metabolite Isopentyl-PP
  Log2(fold change) Isopentyl-PP: -0.3198
[3]; metabolite L-arginino-succinate
  Log2(fold change) L-arginino-succinate: 0.0258
[3]; metabolite LD
  Log2(fold change) LD: 0.2379
[3]; metabolite Myristoyl/tetradecanoyl-CoA
  Log2(fold change) Myristoyl/tetradecanoyl-CoA: 0.0000
[3]; metabolite N-Acetyl-L-alanine
  Log2(fold change) N-Acetyl-L-alanine: 0.0194
[3]; metabolite N-acetyl-L-ornithine
  Log2(fold change) N-acetyl-L-ornithine: -0.1313
[3]; metabolite N-acetyl-glucosamine-1/6-phosphate
  Log2(fold change) N-acetyl-glucosamine-1/6-phosphate: -0.1343
[3]; metabolite N-acetyl-glutamate
  Log2(fold change) N-acetyl-glutamate: -0.1472
[3]; metabolite N-acetyl-glutamine
  Log2(fold change) N-acetyl-glutamine: 0.0192
[3]; metabolite N-carbamoyl-L-aspartate
  Log2(fold change) N-carbamoyl-L-aspartate: -0.1451
[3]; metabolite NAD+
  Log2(fold change) NAD+: -0.0175
[3]; metabolite NADH
  Log2(fold change) NADH: -0.2763
[3]; metabolite NADP+
  Log2(fold change) NADP+: 0.0809
[3]; metabolite NADPH
  Log2(fold change) NADPH: -0.4301
[3]; metabolite O-acetyl-L-serine
  Log2(fold change) O-acetyl-L-serine: -0.0735
[3]; metabolite Octoluse 8/1P
  Log2(fold change) Octoluse 8/1P: -0.1460
[3]; metabolite Octoluse Bisphosphate
  Log2(fold change) Octoluse Bisphosphate: -0.0903
[3]; metabolite PD
  Log2(fold change) PD: -0.0797
[3]; metabolite PE
  Log2(fold change) PE: -0.0211
[3]; metabolite PEE
  Log2(fold change) PEE: 0.0917
[3]; metabolite PEEK
  Log2(fold change) PEEK: 0.1721
[3]; metabolite PVNF
  Log2(fold change) PVNF: 0.1648
[3]; metabolite Pyroglutamic acid
  Log2(fold change) Pyroglutamic acid: -0.1915
[3]; metabolite Pyrophosphate
  Log2(fold change) Pyrophosphate: 0.0000
[3]; metabolite Ribose-5-phosphate
  Log2(fold change) Ribose-5-phosphate: -0.1384
[3]; metabolite S-adenosyl-L-homocysteine
  Log2(fold change) S-adenosyl-L-homocysteine: 0.0407
[3]; metabolite S-adenosyl-L-methioninamine
  Log2(fold change) S-adenosyl-L-methioninamine: -0.3534
[3]; metabolite S-adenosyl-L-methionine
  Log2(fold change) S-adenosyl-L-methionine: 0.0000
[3]; metabolite S-methyl-5'-thioadenosine
  Log2(fold change) S-methyl-5'-thioadenosine: 0.0820
[3]; metabolite SD
  Log2(fold change) SD: -0.1003
[3]; metabolite SDL
  Log2(fold change) SDL: 0.0000
[3]; metabolite SID
  Log2(fold change) SID: 0.1202
[3]; metabolite Sedoheptulose bisphosphate
  Log2(fold change) Sedoheptulose bisphosphate: -0.2322
[3]; metabolite Thiamine pyrophosphate
  Log2(fold change) Thiamine pyrophosphate: 0.0281
[3]; metabolite UDP-D-glucose, log2 fold change
  Log2(fold changes) UDP-D-glucose: -0.0394
[3]; metabolite UDP-D-glucuronate, log2 fold change
  Log2(fold changes) UDP-D-glucuronate: -0.0296
[3]; metabolite UDP-N-acetyl-glucosamine, log2 fold change
  Log2(fold changes) UDP-N-acetyl-glucosamine: -0.1021
[3]; metabolite UDP, log2 fold change
  Log2(fold changes) UDP: -0.2552
[3]; metabolite UMP, log2 fold change
  Log2(fold changes) UMP: -0.1084
[3]; metabolite UTP, log2 fold change
  Log2(fold changes) UTP: 0.0000
[3]; metabolite hydroxyphenylpyruvate
  Log2(fold change) hydroxyphenylpyruvate: 0.0000
[3]; metabolite hydroxyproline/Aminolevulinate
  Log2(fold change) hydroxyproline/Aminolevulinate: -0.1121
[3]; metabolite hypoxanthine
  Log2(fold change) hypoxanthine: -0.1075
[3]; metabolite indole
  Log2(fold change) indole: 0.0000
[3]; metabolite inosine
  Log2(fold change) inosine: 0.0076
[3]; metabolite isoleucine
  Log2(fold change) isoleucine: 0.0000
[3]; metabolite lactate
  Log2(fold change) lactate: -0.1204
[3]; metabolite leucine
  Log2(fold change) leucine: 0.0000
[3]; metabolite lysine
  Log2(fold change) lysine: -0.3554
[3]; metabolite malate
  Log2(fold change) malate: -0.1053
[3]; metabolite maleic acid
  Log2(fold change) maleic acid: -0.1158
[3]; metabolite methionine
  Log2(fold change) methionine: -0.0422
[3]; metabolite myo-inositol
  Log2(fold change) myo-inositol: -0.1497
[3]; metabolite nicotinamide mononucleotide
  Log2(fold change) nicotinamide mononucleotide: 0.0424
[3]; metabolite nicotinate
  Log2(fold change) nicotinate: -0.2143
[3]; metabolite ornithine
  Log2(fold change) ornithine: 0.2780
[3]; metabolite orotate
  Log2(fold change) orotate: -0.3359
[3]; metabolite orotidine-5'-phosphate
  Log2(fold change) orotidine-5'-phosphate: -0.1978
[3]; metabolite oxaloacetate
  Log2(fold change) oxaloacetate: -0.2404
[3]; metabolite p-aminobenzoate
  Log2(fold change) p-aminobenzoate: 0.0000
[3]; metabolite p-hydroxybenzoate
  Log2(fold change) p-hydroxybenzoate: 0.0000
[3]; metabolite pantothenate
  Log2(fold change) pantothenate: -0.0579
[3]; metabolite phenylalanine
  Log2(fold change) phenylalanine: -0.1115
[3]; metabolite phenylpyruvate
  Log2(fold change) phenylpyruvate: 0.0000
[3]; metabolite phosphoenolpyruvate
  Log2(fold change) phosphoenolpyruvate: 0.0011
[3]; metabolite prephenate
  Log2(fold change) prephenate: -0.0728
[3]; metabolite proline
  Log2(fold change) proline: -0.1132
[3]; metabolite pyridoxine
  Log2(fold change) pyridoxine: 0.1122
[3]; metabolite pyruvate
  Log2(fold change) pyruvate: -0.1845
[3]; metabolite riboflavin
  Log2(fold change) riboflavin: 0.2197
[3]; metabolite ribose
  Log2(fold change) ribose: -0.0488
[3]; metabolite ribose-phosphate
  Log2(fold change) ribose-phosphate: -0.3090
[3]; metabolite ribulose-5-phosphate
  Log2(fold change) ribulose-5-phosphate: -0.1779
[3]; metabolite serine
  Log2(fold change) serine: -0.0132
[3]; metabolite sn-glycerol-3-phosphate
  Log2(fold change) sn-glycerol-3-phosphate: -0.0322
[3]; metabolite succinate/Methylmalonic acid
  Log2(fold change) succinate/Methylmalonic acid: 0.0214
[3]; metabolite succinyl-CoA/methylmalonyl-CoA
  Log2(fold change) succinyl-CoA/methylmalonyl-CoA: 0.0000
[3]; metabolite taurine
  Log2(fold change) taurine: -0.5626
[3]; metabolite thiamine
  Log2(fold change) thiamine: -0.2223
[3]; metabolite threonine/homoserine
  Log2(fold change) threonine/homoserine: -0.0861
[3]; metabolite thymidine
  Log2(fold change) thymidine: 0.0000
[3]; metabolite thymine, log2 fold change
  Log2(fold changes) thymine: 0.0000
[3]; metabolite trehalose-6-Phosphate, log2 fold change
  Log2(fold changes) trehalose-6-Phosphate: 0.0000
[3]; metabolite tryptophan, log2 fold change
  Log2(fold changes) tryptophan: -0.3649
[3]; metabolite tyrosine, log2 fold change
  Log2(fold changes) tyrosine: -0.0724
[3]; metabolite uridine, log2 fold change
  Log2(fold changes) uridine: 0.0000
